In US20060252807A1, “Novel ortho-terphenyl inhibitors of p38 kinase and methods of treating inflammatory disorders” (Kalypsys, Inc., priority 2005, published 2006):

Each compound was assayed against T1, active p38 alpha enzyme (Upstate Biotechnology) (Homo sapiens, UniProt Q16539) (assay: p38α biochemical assay (ATP turnover, luminescent detection, Cambrex PKlight)). Conditions: p38α biochemical assay, Table 1 Biological Activity.
T1 construct: purchased Upstate Biotechnology
Method in brief: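 Compounds in DMSO are added to active p38 alpha with MapkapK2 whole protein and ATP at 1.4 uM final. Reactions then run for 2 hours at 30C. A luminescent reagent is added last to quantify total ATP consumed.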

T1 sequence (Q16539 whole entry): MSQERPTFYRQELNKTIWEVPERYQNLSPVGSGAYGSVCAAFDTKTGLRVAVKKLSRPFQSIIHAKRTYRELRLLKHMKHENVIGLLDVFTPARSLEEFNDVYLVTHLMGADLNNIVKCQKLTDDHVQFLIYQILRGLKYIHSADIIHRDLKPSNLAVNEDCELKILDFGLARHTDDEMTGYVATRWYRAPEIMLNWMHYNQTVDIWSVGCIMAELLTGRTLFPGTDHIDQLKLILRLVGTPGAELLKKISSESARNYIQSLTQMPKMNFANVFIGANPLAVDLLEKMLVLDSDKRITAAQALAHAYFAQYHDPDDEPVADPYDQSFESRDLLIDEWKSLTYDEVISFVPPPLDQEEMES

Structure (SMILES)	IC50 [µM]
CC(=O)Oc1ccccc1C(=O)NCc1onc(-c2ccc(F)cc2)c1-c1nc(C(=O)NC(C)C)cs1 [Example 691]	≤ 1
CC(C)NC(=O)c1csc(-c2c(-c3ccc(F)cc3)noc2CNC(=O)C2CN(C(=O)OC(C)(C)C)CCN2)n1 (centres unmarked) [Example 789]	> 1
CC(C)NC(=O)c1csc(-c2oc(CN3CCN(C(=O)c4cccc(F)c4F)CC3)nc2-c2ccc(F)cc2)n1 [Example 395]	> 1
Cc1onc(-c2ccc(Cl)cc2)c1-c1ccn(C(=O)NC2Cc3ccccc3C2)n1 [Example 10, 3-|3-(4-Chloro-phenyl)-5-methyl-isoxazol-4-yl|-pyrazole-1-carboxylic acid indan-2-ylamide]	> 1
CC(C)NC(=O)c1csc(-c2oc(CN3CCN(C(=O)c4cc(O)ccc4O)CC3)nc2-c2ccc(F)cc2)n1 [Example 383]	≤ 1
CC(C)NC(=O)c1csc(-c2c(-c3ccc(F)cc3)noc2CNC(=O)c2cscn2)n1 [Example 594]	> 1
CC(C)NC(=O)c1csc(-c2oc(CNC(=O)/C=C/c3ccccc3O)nc2-c2ccc(F)cc2)n1 [Example 166]	≤ 1
CC(C)NC(=O)c1csc(-c2oc(CN3CCN(C(=O)c4cccc5ccccc45)CC3)nc2-c2ccc(F)cc2)n1 [Example 431]	≤ 1
CCCc1ccc(C(=O)NCc2nc(-c3ccc(F)cc3)c(-c3nc(C(=O)NC(C)C)cs3)o2)cc1 [Example 176]	> 1
CC(C)NC(=O)c1csc(-c2oc(CNC(=O)c3ccc(F)cc3)nc2-c2ccc(F)cc2)n1 [Example 126]	> 1
CC(C)NC(=O)c1csc(-c2oc(CN3CCN(C(=O)c4ccc(C#N)cc4)CC3)nc2-c2ccc(F)cc2)n1 [Example 366]	> 1
Cc1onc(-c2ccc(Cl)cc2)c1-c1ccn(C(=O)CC(C)C)n1 [Example 20, 1-{3-|3-(4-Chloro-phenyl)-5-methyl-isoxazol-4-yl|-pyrazol-1-yl}-3-methyl-butan-1-one]	> 1
COc1ccc(/C=C/C(=O)N2CCN(Cc3nc(-c4ccc(F)cc4)c(-c4nc(C(=O)NC(C)C)cs4)o3)CC2)cc1O [Example 499]	≤ 1
CC(C)NC(=O)c1csc(-c2oc(CNC(=O)c3cc(O)ccc3[N+](=O)[O-])nc2-c2ccc(F)cc2)n1 [Example 233]	≤ 1
COc1cc(Cl)ccc1C(=O)N1CCN(Cc2nc(-c3ccc(F)cc3)c(-c3nc(C(=O)NC(C)C)cs3)o2)CC1 [Example 476]	> 1
CC(C)NC(=O)c1csc(-c2oc(CN3CCN(C(=O)C(C)O)CC3)nc2-c2ccc(F)cc2)n1 (centres unmarked) [Example 338]	> 1
CC(C)NC(=O)c1csc(-c2oc(CN3CCN(C(=O)c4csc5ccccc45)CC3)nc2-c2ccc(F)cc2)n1 [Example 443]	> 1
CC(C)NC(=O)c1csc(-c2oc(CNC(=O)c3ncc[nH]3)nc2-c2ccc(F)cc2)n1 [Example 106]	≤ 1
CC(C)NC(=O)c1csc(-c2oc(CNC(=O)c3ccc(Oc4cccc(O)c4)cc3)nc2-c2ccc(F)cc2)n1 [Example 312]	≤ 1
CCC(C(=O)NCc1onc(-c2ccc(F)cc2)c1-c1nc(C(=O)NC(C)C)cs1)c1ccccc1 (centres unmarked) [Example 649]	> 1
CC(C)NC(=O)c1csc(-c2c(-c3ccc(F)cc3)noc2CNC(=O)c2cnc[nH]2)n1 [Example 580]	> 1
CC(C)NC(=O)c1csc(-c2oc(CN3CCN(C(=O)CCc4cccc(C(F)(F)F)c4)CC3)nc2-c2ccc(F)cc2)n1 [Example 537]	> 1

Same assay, conditions: p38α kinase; Table 1 Biological Activity

Structure (SMILES)	IC50 [µM]
CC(C)NC(=O)c1csc(-c2oc(CN(C)CC(O)c3ccccc3)nc2-c2ccc(F)cc2)n1 (centres unmarked) [Example 1235]	> 1
CCCCCCCC(=O)N1CCC(c2[nH]nc(-c3ccc(F)cc3)c2-c2nc(C(=O)NC(C)C)cs2)CC1 [Example 842]	> 1
CC(C)NC(=O)c1csc(-c2oc(CNc3ccccc3COc3ccccc3)nc2-c2ccc(F)cc2)n1 [Example 1369]	> 1
CC(C)NC(=O)c1csc(-c2oc(CNc3ccc(F)cc3C(F)(F)F)nc2-c2ccc(F)cc2)n1 [Example 1363]	> 1
Cc1nc(-c2ccc(F)cc2)c(-c2nc(C(=O)N3CCN(c4ccccn4)CC3)cs2)s1 [Example 1893]	> 1
CC(C)NC(=O)c1csc(-c2oc(CN3CCCC3CO)nc2-c2ccc(F)cc2)n1 (centres unmarked) [Example 1200]	> 1
CCC(CO)NCc1onc(-c2ccc(F)cc2)c1-c1nc(C(=O)NC(C)C)cs1 (centres unmarked) [Example 1405]	> 1
CC(C)NC(=O)c1csc(-c2c(-c3ccc(F)cc3)n[nH]c2C2CCN(C(=O)c3ccc(Cl)c(Br)c3)CC2)n1 [Example 1035]	> 1
COc1ccc(CNC(=O)c2csc(-c3sc(C)nc3-c3ccc(F)cc3)n2)cc1 [Example 1780]	≤ 1
CCOC(=O)N1CCN(Cc2nc(-c3ccc(F)cc3)c(-c3nc(C(=O)NC(C)C)cs3)o2)CC1 [Example 1239]	> 1
Cc1nc(-c2ccc(F)cc2)c(-c2nc(C(=O)NCC#N)cs2)s1 [Example 1708]	≤ 1
COC(=O)N1CCC(c2[nH]nc(-c3ccc(F)cc3)c2-c2nc(C(=O)NC(C)C)cs2)CC1 [Example 2172, 4-|5-(4-Fluoro-phenyl)-4-(4-isopropyl-carbamoyl-thiazol-2-yl)-2H-pyrazol-3-yl|-piperidine-1-carboxylic acid methyl ester]	≤ 1
Cc1ccc(C(=O)N2CCC(c3[nH]nc(-c4ccc(F)cc4)c3-c3nc(C(=O)NC(C)C)cs3)CC2)cc1C [Example 853]	> 1
Cc1nc(-c2ccc(F)cc2)c(-c2nc(C(=O)N(C)CCc3ccccc3)cs2)s1 [Example 1877]	> 1
CC(C)NC(=O)c1csc(-c2c(-c3ccc(F)cc3)noc2CN(C)CCC#N)n1 [Example 1516]	> 1
CC(=O)c1ccccc1C(=O)N1CCC(c2[nH]nc(-c3ccc(F)cc3)c2-c2nc(C(=O)NC(C)C)cs2)CC1 [Example 884]	> 1
Cc1cccc(C(C)C)c1NCc1onc(-c2ccc(F)cc2)c1-c1nc(C(=O)NC(C)C)cs1 [Example 1673]	> 1
CC(C)NC(=O)c1csc(-c2c(-c3ccc(F)cc3)n[nH]c2C2CCN(C(=O)c3ccccc3-c3ccccc3)CC2)n1 [Example 981]	> 1
Cc1nc(-c2ccc(F)cc2)c(-c2nc(C(=O)NCCCNC(=O)OC(C)(C)C)cs2)s1 [Example 1817]	≤ 1
CC(C)NC(=O)c1csc(-c2c(-c3ccc(F)cc3)n[nH]c2C2CCN(C(=O)Cc3ccccc3O)CC2)n1 [Example 857]	≤ 1
CC(C)NC(=O)c1csc(-c2c(-c3ccc(F)cc3)noc2CNCc2ccncc2)n1 [Example 1418]	> 1
CC(C)NC(=O)c1csc(-c2c(-c3ccc(F)cc3)n[nH]c2C2CCN(C(=O)c3ccc(Br)cc3)CC2)n1 [Example 983]	> 1

Structure (SMILES)	IC50 [µM]
CC(C)NC(=O)c1csc(-c2oc(CNc3ccccc3C(C)C)nc2-c2ccc(F)cc2)n1 [Example 1334]	> 1
CC(C)NC(=O)c1csc(-c2c(-c3ccc(F)cc3)noc2CN2CCN(c3cccc(C(F)(F)F)c3)CC2)n1 [Example 1623]	> 1
CCCCN(Cc1ccccc1)Cc1onc(-c2ccc(F)cc2)c1-c1nc(C(=O)NC(C)C)cs1 [Example 1569]	> 1
CC(=O)N1CCC(c2onc(-c3ccc(F)cc3)c2-c2nc(C(=O)NC(C)C)cs2)CC1 [Example 2184, 2-|5-(1-Acetyl-piperidin-4-yl)-3-(4-fluoro-phenyl)-isoxazol-4-yl|-thiazole-4-carboxylic acid isopropylamide]	≤ 1
COc1cc(C(=O)N2CCC(c3[nH]nc(-c4ccc(F)cc4)c3-c3nc(C(=O)NC(C)C)cs3)CC2)cc(OC)c1O [Example 980]	> 1
CC(C)NC(=O)c1csc(-c2c(-c3ccc(F)cc3)noc2CN2CCN(c3ccccc3C#N)CC2)n1 [Example 1586]	> 1
CCOC(=O)N1CCN(Cc2onc(-c3ccc(F)cc3)c2-c2nc(C(=O)NC(C)C)cs2)CC1 [Example 1564]	> 1
COc1ccc(C(=O)N2CCC(c3[nH]nc(-c4ccc(F)cc4)c3-c3nc(C(=O)NC(C)C)cs3)CC2)cc1O [Example 903]	> 1
CC(C)NC(=O)c1csc(-c2oc(CN3Cc4ccccc4C3)nc2-c2ccc(F)cc2)n1 [Example 1216]	> 1
CC(C)NC(=O)c1csc(-c2c(-c3ccc(F)cc3)noc2CNCc2ccc(C(F)(F)F)cc2)n1 [Example 1493]	> 1
Cc1nc(-c2ccc(F)cc2)c(-c2nc(C(=O)Nc3ccc4c(c3)OCCO4)cs2)s1 [Example 2002]	≤ 1
CC(C)NC(=O)c1csc(-c2c(-c3ccc(F)cc3)n[nH]c2C2CCN(C(=O)c3ccc(OCc4ccccc4)cc3)CC2)n1 [Example 1022]	> 1
CC(C)NC(=O)c1csc(-c2c(-c3ccc(F)cc3)noc2CN2CCC(NC(=O)OC(C)(C)C)C2)n1 (centres unmarked) [Example 1585]	> 1
CC(=O)c1ccc(NCc2onc(-c3ccc(F)cc3)c2-c2nc(C(=O)NC(C)C)cs2)cc1 [Example 1659]	> 1
Cc1ccc(C)c(C(=O)N2CCC(c3[nH]nc(-c4ccc(F)cc4)c3-c3nc(C(=O)NC(C)C)cs3)CC2)c1 [Example 851]	> 1
CC(C)NC(=O)c1csc(-c2oc(CNCc3cccc(C(F)(F)F)c3)nc2-c2ccc(F)cc2)n1 [Example 1167]	> 1
CC(C)NC(=O)c1csc(-c2c(-c3ccc(F)cc3)noc2CNCc2ccccc2Cl)n1 [Example 1462]	> 1
CC(C)NC(=O)c1csc(-c2c(-c3ccc(F)cc3)noc2CNCCCNC(=O)OC(C)(C)C)n1 [Example 1492]	> 1
CC(C)NC(=O)c1csc(-c2c(-c3ccc(F)cc3)n[nH]c2C2CCN(C(=O)C(C)c3cccc(C(=O)c4ccccc4)c3)CC2)n1 (centres unmarked) [Example 1044]	> 1
COc1ccncc1NCc1nc(-c2ccc(F)cc2)c(-c2nc(C(=O)NC(C)C)cs2)o1 [Example 1327]	> 1
CC(C)NC(=O)c1csc(-c2oc(CNCc3ccc(Cl)c(Cl)c3)nc2-c2ccc(F)cc2)n1 [Example 1168]	> 1
